Results from paper PMC12845078 (Pharmaceuticals, 2025).

Legend:
Assay type in all cases: in vitro ADME
[1] = molecular target: T1, CYP enzymes involved in melatonin 6-hydroxylation, human liver microsomes (Homo sapiens, UniProt P05177); assay: Competitive inhibition of CBD on MT 6-hydroxylation, human liver microsomes
T1 construct: tissue XenoTech; host or cells: human liver microsomes
T1 sequence (P05177 1-516): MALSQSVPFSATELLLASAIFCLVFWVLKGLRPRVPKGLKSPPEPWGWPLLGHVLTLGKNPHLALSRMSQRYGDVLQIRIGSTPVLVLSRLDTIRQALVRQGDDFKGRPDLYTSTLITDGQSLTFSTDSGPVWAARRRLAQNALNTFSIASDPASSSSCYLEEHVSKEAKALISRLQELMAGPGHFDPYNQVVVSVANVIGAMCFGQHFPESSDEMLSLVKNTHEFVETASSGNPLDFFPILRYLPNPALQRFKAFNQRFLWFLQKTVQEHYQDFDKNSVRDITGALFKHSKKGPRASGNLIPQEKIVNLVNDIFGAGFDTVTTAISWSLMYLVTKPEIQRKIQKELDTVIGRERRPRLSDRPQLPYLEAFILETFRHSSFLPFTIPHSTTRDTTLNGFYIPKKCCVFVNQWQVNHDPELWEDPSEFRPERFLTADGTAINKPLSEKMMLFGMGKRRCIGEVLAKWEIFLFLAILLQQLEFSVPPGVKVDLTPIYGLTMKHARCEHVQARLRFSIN
Procedure: (§1) The final incubation system contained 100 mM PBS, 5 mM MgCl2, 0.5 mg/mL liver microsomal protein, and 1 mM NADPH. […] The final concentration of MT was 1 μM.

[2] = molecular target: T2, CYP enzymes involved in melatonin 6-hydroxylation (Homo sapiens, UniProt P05177); assay: as above; conditions: human, liver microsomes, probe melatonin (MT) 1 μM, 6-hydroxylation to 6-HMT
T2 construct: tissue XenoTech; host or cells: human liver microsomes
T2 sequence (P05177 1-516): T1 sequence (P05177 1-516)
Procedure: as §1

[3] = molecular target: T3, CYP enzymes involved in melatonin 6-hydroxylation (Rattus norvegicus, UniProt P04799); assay: Competitive inhibition of CBD on MT 6-hydroxylation, rat liver microsomes; conditions: probe melatonin (MT) 1 μM, 6-hydroxylation to 6-HMT
T3 sequence (P04799 2-513): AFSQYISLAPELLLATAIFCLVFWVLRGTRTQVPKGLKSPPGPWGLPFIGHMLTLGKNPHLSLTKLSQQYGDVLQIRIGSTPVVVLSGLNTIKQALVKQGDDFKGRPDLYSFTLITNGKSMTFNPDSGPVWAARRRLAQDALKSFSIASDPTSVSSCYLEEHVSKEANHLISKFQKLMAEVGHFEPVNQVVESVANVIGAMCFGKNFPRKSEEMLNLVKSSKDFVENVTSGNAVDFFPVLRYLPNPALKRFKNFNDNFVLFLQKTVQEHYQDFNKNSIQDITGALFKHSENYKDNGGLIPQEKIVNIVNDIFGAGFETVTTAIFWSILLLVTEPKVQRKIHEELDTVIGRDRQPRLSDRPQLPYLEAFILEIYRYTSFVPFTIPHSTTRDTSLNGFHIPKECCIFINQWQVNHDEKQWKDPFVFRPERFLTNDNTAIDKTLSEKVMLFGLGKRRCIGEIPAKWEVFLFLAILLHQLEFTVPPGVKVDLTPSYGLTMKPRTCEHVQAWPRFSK
Procedure: as §1

## C=C(C)[C@@H]1CCC(C)=C[C@H]1c1c(O)cc(CCCCC)cc1O [CBD, Cannabidiol]
[1]
  IC50: 16.5 ± 4.23 µM
[2]
  IC50 at 30 min: 3.39 µM
[3]; human, IC50, inhibition of MT 6-hydroxylation, hepatic microsomes of other species (not beagle)
  IC50 at 30 min: 13.5 to 36.5 µM
[3]; IC50, inhibition of MT 6-hydroxylation, RLM, MT 1 μM
  IC50 at 30 min: 13.5 ± 1.15 µM
[3]; IC50, rat, as listed in Table 6 for static DDI model
  IC50 at 30 min: 9.51 µM
